Source: ChEMBL document CHEMBL3046896, “Synthesis and antitumor screening of new series of pyrimido-[4,5-b]quinolines and [1,2,4]triazolo[2,3:3,4]pyrimido[6,5-b]quinolines” (Med Chem Res, 2013)
Activity calls are given as the source filed them. No cut-off for these calls is given here.

Experiments:
[1] = Displacement of methyl green from DNA after 24 hr by spectrophotometric analysis
[2] = Binding affinity to DNA at 5 mg/ml by TLC analysis
MCF7 = assay: Cytotoxicity against Homo sapiens (human) MCF7 cells after 48 hr by SRB assay; assay type: functional, cell-based; details: MCF7, 48 h

Row | Molecule | IC50 [1] [µM] | Activity [2] | IC50 (MCF7) [µM]
1 | CCCCn1c(=S)[nH]c2c(c1=N)C(c1ccc(Cl)cc1)C1=C(CCCC1)N2 (stereo not drawn) | 88 | inactive | 
2 | N=c1c2c([nH]c(=S)n1-c1ccccc1)NC1=C(CCCC1)C2c1ccc(Cl)cc1 (stereo not drawn) | 55 | Active | 
3 | COc1ccc(C2C3=C(CCCC3)Nc3[nH]c(=S)n(-c4ccccc4)c(=N)c32)cc1OC (stereo not drawn) | 40 | Active | 5.3
4 | COc1ccc(/C=N/n2cnc3c(c2=N)C(c2ccc(OC)c(OC)c2)C2=C(CCCC2)N3)cc1OC (stereo not drawn) | 38 | Active | 6.17
5 | COc1ccc(C2C3=C(CCCC3)Nc3ncn(/N=C/c4ccc(Cl)cc4)c(=N)c32)cc1OC (stereo not drawn) | 14 | Active | 3.76
6 | COc1ccc(/C=N/n2cnc3c(c2=N)C(c2ccccc2)C2=C(CCCC2)N3)cc1OC (stereo not drawn) | 32 | Active | 5.37
7 | COc1ccc(C2C3=C(CCCC3)Nc3nc(C)[nH]c(=O)c32)cc1OC (stereo not drawn) | 25 | Active | > 10
8 | CCCCn1c(=S)[nH]c2c(c1=N)C(c1ccccc1)C1=C(CCCC1)N2 (stereo not drawn) | 72 | Active | 5.7
9 | Nc1ncnc2c1C(c1ccc(Cl)cc1)C1=C(CCCC1)N2 (stereo not drawn) | 25 | Active | 3.89
10 | COc1ccc(C2C3=C(CCCC3)Nc3ncnc(N)c32)cc1OC (stereo not drawn) | 12 | Active | 3.62
11 | COc1ccc(C2C3=C(CCCC3)Nc3[nH]c(=S)[nH]c(=S)c32)cc1OC (stereo not drawn) | 38 | Active | > 10
12 | Cc1nc2c(c(=O)[nH]1)C(c1cccc(Br)c1)C1=C(CCCC1)N2 (stereo not drawn) | 32 | Active | 4.03
13 | O=c1[nH]cnc2c1C(c1ccccc1)C1=C(CCCC1)N2 (stereo not drawn) | 88 | inactive | > 10
14 | CCOC(=O)/N=c1/c2c(ncn1NC(=O)OCC)NC1=C(CCCC1)C2c1ccccc1 (stereo not drawn) | 40 | Active | 5.44
15 | S=c1[nH]c2c(c(=S)[nH]1)C(c1cccc(Br)c1)C1=C(CCCC1)N2 (stereo not drawn) | 76 | Active | 4.5
16 | Cc1nc2c(c(=O)[nH]1)C(c1ccccc1)C1=C(CCCC1)N2 (stereo not drawn) | 22 | Active | 4.97
17 | N=c1c2c(ncn1/N=C/c1ccc(Cl)cc1)NC1=C(CCCC1)C2c1ccccc1 (stereo not drawn) | 88 | inactive | 
18 | Brc1cccc(C2C3=C(CCCC3)Nc3ncn4ncnc4c32)c1 (stereo not drawn) | 90 | inactive | > 10
19 | N=c1c2c([nH]c(=S)n1-c1ccccc1)NC1=C(CCCC1)C2c1ccccc1 (stereo not drawn) | 25 | Active | 6.98
20 | c1ccc(C2C3=C(CCCC3)Nc3ncn4ncnc4c32)cc1 (stereo not drawn) | 88 | inactive | > 10
21 | S=c1[nH]c2c(c(=S)[nH]1)C(c1ccccc1)C1=C(CCCC1)N2 (stereo not drawn) | 72 | Active | 
22 | N=c1c2c(ncn1/N=C/c1ccc(Cl)cc1)NC1=C(CCCC1)C2c1ccc(Cl)cc1 (stereo not drawn) | 70 | Active | > 10
23 | BLEOMYCIN | 10 |  | 
